Where two headings read alike, the source gives them in different places.

These results are taken from paper PMC5355811 (Nature Communications, 2017).

In assay [1] the test system is Ba/F3 cells expressing EGFR-C797S/T790M/del19. Kind of assay: CellTiter-Glo cell viability assay, Ba/F3 EGFR-C797S/T790M/del19. Format: cell-based. Particulars: for IC50: Mus musculus, BaF3, 72 h, Fig. 3b,c, 72 h. Here is the method: (§1) Three-day cell viability assays were carried out by plating 2,000, 1,500 and 2,000 cells per well of Ba/F3, PC9 or MGH121, respectively, into black transparent-bottom 96-well plates. On the same day for Ba/F3 cells and the following day for PC9 and MGH121 cells, the cells were treated with each TKI across a 10-dose range from 0.3 nmol l^−1 to 10 μmol l^−1. After 72 h of drug treatment, cell viability was measured using the CellTiter-Glo assay (Promega).

Assay [2] has as its system Ba/F3 cells expressing EGFR-T790M/del19. Kind of assay: CellTiter-Glo cell viability assay, Ba/F3 EGFR-T790M/del19. Particulars: Mus musculus, BaF3; Fig. 3c; 72 h; read-out: IC50, Ba/F3 T790M/del19. Format: cell-based. As for the experimental part:
as §1
In general terms: ATP-based viability assays read luminescence as a measure of living cells.

Assay [3] concerns Ba/F3 cells expressing EGFR-del19. The assay is described as follows: CellTiter-Glo cell viability assay, Ba/F3 EGFR-del19. Format: cell-based. Particulars: Mus musculus. As for the experimental part: as §1
Assay [4] has as its system PC9 T790M cells (T790M/del19). Kind of assay: CellTiter-Glo cell viability assay, PC9 T790M. Format: cell-based. Particulars: 72 h, read-out: IC50, PC9 T790M. As for the experimental part:
as §1

The test system of assay [5] is Ba/F3 cells expressing EGFR-T790M/L858R. The assay is described as follows: CellTiter-Glo cell viability assay, Ba/F3 EGFR-T790M/L858R. Particulars: Mus musculus, BaF3; Supplementary Fig. 8e; 72 h; read-out: IC50, Ba/F3 T790M/L858R. Format: cell-based. As for the experimental part:
as §1

Assay [6] relates to Ba/F3 cells expressing EGFR-L858R. Kind of assay: CellTiter-Glo cell viability assay, Ba/F3 EGFR-L858R. Format: cell-based. Particulars: Mus musculus, BaF3; Supplementary Fig. 8e; 72 h; read-out: IC50, Ba/F3 L858R. Here is the method:
as §1

Assay [7] concerns PC9 triple-mutant cells (C797S/T790M/del19). The assay is described as follows: CellTiter-Glo cell viability assay, PC9 triple mutant. Particulars: 72 h, read-out: IC50, PC9 triple. Format: cell-based. Here is the method: as §1
The next assay concerns PC9 parent cells (del19). Kind of assay: CellTiter-Glo cell viability assay, PC9 parent. Particulars: 72 h, read-out: IC50, PC9 parent. Format: cell-based. Here is the method:
as §1

Assay [8] concerns Ba/F3 cells expressing EGFR-C797S/T790M/L858R. The assay is described as follows: CellTiter-Glo cell viability assay, Ba/F3 EGFR-C797S/T790M/L858R. Format: cell-based. Particulars: Mus musculus, BaF3; Supplementary Fig. 8e; 72 h. Here is the method:
as §1

Assay [9] deals with PC9-T790M (T790M/del19) xenograft. Kind of assay: PC9-T790M xenograft. Particulars: osimertinib 50 mg kg^−1, brigatinib 75 mg kg^−1. Format: in vivo, Balb-c nu/nu mice.
Procedure: (§4) Tumour growth was monitored twice weekly by bilateral caliper measurement, and tumour volume was calculated as 0.5 × length × width × width (mm^3). […] The mice whose implanted tumour size was ranked in the top 5% and bottom 5% were excluded from randomization to minimize the variation of tumour sizes. The mice were treated once daily by oral gavage for the indicated period. Relative tumour volume was calculated by dividing by the tumour volume on day 0. The body weights of the mice were measured twice weekly. Implanted tumours were resected from the mice on day 15 of drug treatment and were fixed with formalin. The mice were euthanized when the tumour size exceeded 700 mm^3 within several days. The investigators performing tumour measurements were not blinded to treatment groups. The sample size (minimum n=6 per treatment group) was selected to ensure satisfactory inter-animal reproducibility. The Mann–Whitney U test was used for the statistical analysis of the mice experiments.
In assay [10] the test system is Ba/F3 cells of EGFR-T790M/del19. Kind of assay: Drug sensitivity screening at 100 nM, Ba/F3 EGFR-T790M/del19. Particulars: for viability at 0.1 µM: Mus musculus, BaF3, 72 h, read-out: Relative cell viability (ratio to DMSO control), del19/T790M; for Relative cell viability (% of DMSO control): 100 nM. Format: cell-based. As for the experimental part: (§2) After the incubation, cell viability was measured using CellTiter-Glo assay. The relative cell viability was calculated as a ratio of each value to that of the DMSO control.

Assay [11] concerns phosphorylation of EGFR in Ba/F3 cells expressing EGFR-C797S/T790M/del19. The assay is described as follows: Western blotting of EGFR signalling, Ba/F3 triple-del19. Format: cell-based. Particulars: 6 h. As for the experimental part: (§3) Tumour tissues or cells grown under the specified conditions were washed with cold PBS before addition of the SDS lysis buffer (100 mM Tris, 1% SDS, 10% glycerol). Lysates were transferred to microtubes, boiled for 5 min at 100 °C and then vortexed. Protein quantification was performed using the BCA Protein Assay Reagent (Pierce) according to the manufacturer's protocol. Western blot analyses were conducted after separation by SDS-PAGE and transferred to polyvinylidene difluoride membranes.
In general terms: A western blot detects proteins with antibodies after separation by electrophoresis.

Assay [12] has as its system PC9-triple mutant (C797S/T790M/del19) xenograft. Particulars: osimertinib 50 mg kg^−1, brigatinib 75 mg kg^−1 once daily oral; cetuximab 1 mg per mouse three times a week; panitumumab 0.5 mg per mouse two times a week.
Procedure: as §4
The test system of assay [13] is EGFR phosphorylation in PC9 triple-mutant cells. Kind of assay: Western blotting of EGFR signalling, PC9 triple mutant. Format: cell-based. As for the experimental part: as §3
Assay [14] deals with MGH121-res2 cells (C797S/T790M/del19). The assay is described as follows: cells. Particulars: Homo sapiens, MGH121; Table 1e; 72 h; read-out: IC50, MGH121-res2. Format: cell-based. As for the experimental part:
as §1

Assay [15] concerns MGH121 parental cells (T790M/del19). Kind of assay: cells. Format: cell-based. Particulars: Homo sapiens, MGH121; Table 1e; 72 h; read-out: IC50, MGH121-pt. As for the experimental part: as §1
Assay [16] concerns Ba/F3 cells of EGFR-del19. The assay is described as follows: Drug sensitivity screening at 100 nM, Ba/F3 EGFR-del19. Format: cell-based. Particulars: for viability at 0.1 µM: Mus musculus, BaF3, 72 h, read-out: Relative cell viability (ratio to DMSO control), del19; for Relative cell viability (% of DMSO control) in del19 Ba/F3 cells: 100 nM. Here is the method:
as §2

In the next assay the test system is confirmed EGFR T790M. Also noted: method as in PMID 25923549. Particulars: 127 patients with confirmed EGFR T790M, phase 1/2 trial; cited from earlier work.
The test system of assay [17] is Ba/F3 cells of EGFR-C797S/T790M/del19. Kind of assay: Drug sensitivity screening at 100 nM, Ba/F3 EGFR-C797S/T790M/del19. Particulars: Mus musculus. Format: cell-based. As for the experimental part: as §2
[18] abbreviates: BaF3, Fig. 3c, 72 h, read-out: IC50, Ba/F3 Del19.
The mark [19] stands for this setting: 100 nM inhibitor, 72 h, DMSO = 100, mean of three independent experiments (Fig. 1a data).

On to `COc1cc(N2CCC(N(C)C)CC2)ccc1Nc1ncc(Cl)c(Nc2ccccc2P(C)(C)=O)n1` [AP26113-analog], for which the IC50 in [1] is less than 100 nM; in [2] it was 139 nM; in assay [3] (setting [18]), 36.9 nM; in assay [4] (Table 1d, ALK–TKIs) it was 89.3 nM; in [5], 36 nM; in [6], 92.1 nM. Moreover, the IC50 stood at 195 nM in assay [7] (Table 1d, ALK–TKIs); 46.2 nM with PC9 parent cells (del19) (Table 1d, ALK–TKIs); 69.2 nM in assay [8]. Besides, in assay [1] (with or without cetuximab 10 μg ml^−1, 72 h), the “change of IC50 by combination with cetuximab, triple-del19 Ba/F3 cells” value is on record as “approximately three-fold decrease of IC50”.

Take `C=CC(=O)Nc1cc(Nc2nccc(-c3cn(C)c4ccccc34)n2)c(OC)cc1N(C)CCN(C)C` [Osimertinib, osimertinib]: the “tumour growth, T790M/del19-expressing PC9 xenograft” value in assay [9] was “successfully suppressed the growth”. Further, the viability at 0.1 µM in [10] was 7.61%; in assay [16] it was 1.58%. Also, the “phosphorylation of EGFR and downstream signalling, Ba/F3 triple-del19” value in assay [11] is given as “lack of inhibition of EGFR phosphorylation”. Moreover, the IC50 is 11.3 nM in [4] (Table 1c, EGFR–TKIs); 3460 nM in [7] (Table 1c, EGFR–TKIs); 7.46 nM in the assay on PC9 parent cells (del19) (Table 1c, EGFR–TKIs); 7160 nM in [14]; 2.58 nM in assay [15]. Further, the “tumour growth, PC9 triple-mutant xenograft” value in assay [12] is on record as “without any superiority to control group”. The “EGFR phosphorylation and downstream signalling, PC9 triple-mutant cells” value in [13] is “No reduction of the signal pathway”. For the same molecule, in the assay with confirmed EGFR T790M, the median progression-free survival is on record as 9.6 months. Further, in the assay with confirmed EGFR T790M, the response rate is given as 61%.

Turning to `COc1cc(N2CCC(N)CC2)ccc1Nc1ncc(Cl)c(-c2c[nH]c3ccccc23)n1` [AZD3463], the IC50 in assay [1] was found to be 132 nM; in assay [2], 175 nM; in assay [3] (setting [18]), 90 nM; in assay [4] (Table 1d, ALK–TKIs), 378 nM; in assay [5] it was 184 nM; in assay [6] it was 287 nM. The IC50 in assay [7] (Table 1d, ALK–TKIs) was 622 nM; in the assay on PC9 parent cells (del19) (Table 1d, ALK–TKIs), 253 nM; in assay [8], 168 nM. Besides, the “Relative cell viability (% of DMSO control)” value in assay [10] (72 h, DMSO = 100, experiment 1) is 78.5876; in assay [10] (72 h, DMSO = 100, experiment 2) it was 91.5008; in assay [10] (72 h, DMSO = 100, experiment 3), 89.0461. Besides, the viability at 0.1 µM in [10] (setting [19]) is 86.4%; in assay [17] (BaF3, 72 h, 100 nM inhibitor, 72 h, DMSO = 100, mean of three independent experiments (Fig. 1a data)) it was 89.3%; in [16] (setting [19]) it was 34.9%. Besides, the “EGFR phosphorylation and downstream signalling, PC9 triple-mutant cells” value in [13] was “mild activity”. For the same molecule, the “Relative cell viability (% of DMSO control) in del19 Ba/F3 cells” value stood at 35.8012 in assay [16] (72 h, DMSO = 100, experiment 1); 31.981 in [16] (72 h, DMSO = 100, experiment 2); 37.0414 in assay [16] (72 h, DMSO = 100, experiment 3).

By inhibition is commonly meant how much of the control response was suppressed. As for `Cc1ccc(C(=O)Nc2ccc(CN3CCN(C)CC3)c(C(F)(F)F)c2)cc1C#Cc1cnc2cccnn12` [Ponatinib, ponatinib], the IC50 in [3] (BaF3, 72 h, read-out: IC50, Ba/F3 del19) came out at 126 nM. In addition, the viability at 0.1 µM was 53.5% in [10] and 40.6% in assay [16]. For the same molecule, the inhibition at 0.1 µM in assay [17] (BaF3, read-out: growth inhibition against EGFR-triple-del19) was roughly 50%. Further, in assay [11], the “phosphorylation of EGFR and downstream signalling, Ba/F3 triple-del19” value is “no inhibitory activity”.
